Like-named read-outs stand apart in the source and are kept apart here. Where a SMILES comes first, the peptide text is derived from it. The star is where a group is joined. NODAGA = O=C(O)CN1CCN(CC(=O)O)CCN(C(CCC(=O)*)C(=O)O)CC1
What was measured:
[1] = Biodistribution of ^111In-labelled fragments in CD1 nu/nu mice without tumours; format: in vivo, mouse; settings: CD1 nu/nu, mouse, iv, 100 kBq, total radioactivity
Protocol: (§1) Biodistribution of ^111In-PSI-CLNOD1, ^111In-PSI-CLNOD2, ^111In-PSI-CLNOD3 and ^111In-Ex4NOD40 were performed in CD 1 nu/nu mice with tumour xenografts that were prepared as previously described. Six week-old female CD1 nu/nu mice were subcutaneously inoculated in both shoulder regions with 8 x 10^6 CHL-GLP-1R positive cells suspended in PBS pH 7.4. After 4 weeks, the mice were randomly divided into groups of four mice. For the ^111In-labelled fragments mice without tumours were used. The mice were injected with approximately 100 kBq (1–5 pmol) of the respective ^111In-labelled peptide diluted in PBS pH 7.4 with 0.1% BSA via the tail vein and sacrificed after 4 h by CO2 asphyxiation. […] Blood, heart, lungs, spleen, kidneys, pancreas, stomach, intestine, liver, muscle, bone and tumour were removed, weighted and activity determined in a γ-counter (Packard Cobra II Auto Gamma, Perkin Elmer, Switzerland). The percentage of injected activity per gram tissue (%iA/g) was calculated for each sample. The statistical significance was determined using the two-way ANOVA test and corrected for multiple comparisons using Tukey’s honest significance test. The data was log-transformed to account for the variance in the groups.

CD1 nu/nu mice = experiment: as above; format: in vivo, mouse; settings: ^111In-labelled fragment ~100 kBq i.v. tail vein, mice without tumours, after 4 h
Protocol: as §1

meprin β = experiment: recombinant meprin β in meprin assay buffer (50 mM Tris-HCl pH 7.5 + 1 mM MgCl2 + 1 mM CaCl2) and 1 M Tris pH 7.5; settings: 37°C, up to 60 min
meprin α = experiment: recombinant meprin α in meprin assay buffer (50 mM Tris-HCl pH 7.5 + 1 mM MgCl2 + 1 mM CaCl2) and 1 M Tris pH 7.5; settings: 37°C, up to 60 min
[2] = in vivo, Biodistribution of fragment, Blood
[3] = in vivo, Biodistribution of fragment, Bone
[4] = in vivo, Biodistribution of fragment, Heart
[5] = in vivo, Biodistribution of fragment, Intestines
[6] = in vivo, Biodistribution of fragment, Kidneys
[7] = in vivo, Biodistribution of fragment, Liver
[8] = in vivo, Biodistribution of fragment, Lungs
[9] = in vivo, Biodistribution of fragment, Pancreas
[10] = in vivo, Biodistribution of fragment, Spleen
[11] = in vivo, Biodistribution of fragment, Stomach
[12] = in vivo, activity retained in the kidneys at the end of the experiment
[13] = blood, ^111In-labelled fragment ~100 kBq i.v. tail vein, mice without tumours, after 4 h, read-out: Biodistribution of fragment, Blood
[14] = intestines, ^111In-labelled fragment ~100 kBq i.v. tail vein, mice without tumours, after 4 h, read-out: Biodistribution of fragment, Intestines
[15] = kidneys, ^111In-labelled fragment ~100 kBq i.v. tail vein, mice without tumours, after 4 h, read-out: Biodistribution of fragment, Kidneys
[16] = kidneys, ^111In-labelled fragments, mice without tumours, 4 h after injection, summary in text of S3 Table, read-out: activity retained in the kidneys at the end of the experiment
[17] = liver, ^111In-labelled fragment ~100 kBq i.v. tail vein, mice without tumours, after 4 h, read-out: Biodistribution of fragment, Liver
[18] = lungs, ^111In-labelled fragment ~100 kBq i.v. tail vein, mice without tumours, after 4 h, read-out: Biodistribution of fragment, Lungs
[19] = spleen, ^111In-labelled fragment ~100 kBq i.v. tail vein, mice without tumours, after 4 h, read-out: Biodistribution of fragment, Spleen
[20] = stomach, ^111In-labelled fragment ~100 kBq i.v. tail vein, mice without tumours, after 4 h, read-out: Biodistribution of fragment, Stomach
[21] = in vivo, Biodistribution of fragment, Muscle

Row | Compound | tissue uptake at 4 h [1, 2] | tissue uptake at 4 h [1, 3] | tissue uptake at 4 h [1, 4] | tissue uptake at 4 h [1, 5] | tissue uptake at 4 h [1, 6] | tissue uptake at 4 h [1, 7] | tissue uptake at 4 h [1, 8] | tissue uptake at 4 h [1, 9] | tissue uptake at 4 h [1, 10] | tissue uptake at 4 h [1, 11] | tissue uptake at 4 h [1, 12] | cleaved bond (meprin β) | fragment found (meprin α) | also measured
1 | CC(C)[C@H](NC(=O)[C@H](C)NC(=O)[C@H](CCC(=O)O)NC(=O)[C@@H](N)CCC(=O)O)C(=O)N[C@@H](CCCCNC(=O)CCC(C(=O)O)N1CCN(CC(=O)O)CCN(CC(=O)O)CC1)C(N)=O (stereo partly drawn) [CL1-F1] (H-EEAVK(NODAGA)-NH2) | 0.01 %ID/g | 0.05 %ID/g | 0.01 %ID/g | 0.22 %ID/g | 2.28 %ID/g | 0.07 %ID/g | 0.03 %ID/g | 0.01 %ID/g | 0.03 %ID/g | 0.02 %ID/g | < 4 %ID/g |  |  | 
2 | CC(C)[C@H](NC(=O)[C@H](C)NC(=O)[C@@H](N)CCC(=O)O)C(=O)N[C@@H](CCCCNC(=O)CCC(C(=O)O)N1CCN(CC(=O)O)CCN(CC(=O)O)CC1)C(N)=O (stereo partly drawn) [CL1-F2] (H-EAVK(NODAGA)-NH2) | 0.01 %ID/g | 0.06 %ID/g | 0.02 %ID/g | 0.1 %ID/g | 2.97 %ID/g | 0.08 %ID/g | 0.04 %ID/g | 0.01 %ID/g | 0.03 %ID/g | 0.02 %ID/g | < 4 %ID/g |  |  | 
3 | NC(=O)[C@@H](N)CCCCNC(=O)CCC(C(=O)O)N1CCN(CC(=O)O)CCN(CC(=O)O)CC1 (stereo partly drawn) [CL1-F3] |  | 0.07 %ID/g | 0.01 %ID/g | 0.09 %ID/g | 1.72 %ID/g | 0.08 %ID/g | 0.03 %ID/g | 0.01 %ID/g | 0.03 %ID/g | 0.02 %ID/g | < 4 %ID/g |  |  | 
4 | CSCC[C@H](NC(=O)[C@H](Cc1ccc(O)cc1)NC(=O)[C@@H](N)CC(=O)O)C(=O)NCC(=O)N[C@@H](Cc1c[nH]c2ccccc12)C(=O)N[C@@H](CCSC)C(=O)N[C@@H](CC(=O)O)C(=O)N[C@@H](Cc1ccccc1)C(=O)N[C@@H](CCCCNC(=O)CCC(C(=O)O)N1CCN(CC(=O)O)CCN(CC(=O)O)CC1)C(N)=O (stereo partly drawn) [CL2-F1] |  |  |  |  |  |  |  |  |  |  |  |  |  | Biodistribution of fragment, Muscle (CD1 nu/nu mice): 0.00 %iA/g; tissue uptake at 4 h [1, 13]: 0.02 %ID/g; tissue uptake at 4 h ([1]; bone, ^111In-labelled fragment ~100 kBq i.v. tail vein, mice without tumours, after 4 h, read-out: Biodistribution of fragment, Bone): 0.06 %ID/g; tissue uptake at 4 h ([1]; heart, ^111In-labelled fragment ~100 kBq i.v. tail vein, mice without tumours, after 4 h, read-out: Biodistribution of fragment, Heart): 0.02 %ID/g; tissue uptake at 4 h [1, 14]: 0.15 %ID/g; tissue uptake at 4 h [1, 15]: 2.5 %ID/g; tissue uptake at 4 h [1, 16]: < 4 %ID/g; tissue uptake at 4 h [1, 17]: 0.17 %ID/g; tissue uptake at 4 h [1, 18]: 0.04 %ID/g; tissue uptake at 4 h ([1]; pancreas, ^111In-labelled fragment ~100 kBq i.v. tail vein, mice without tumours, after 4 h, read-out: Biodistribution of fragment, Pancreas): 0.02 %ID/g; tissue uptake at 4 h [1, 19]: 0.07 %ID/g; tissue uptake at 4 h [1, 20]: 0.04 %ID/g
5 | NC(=O)[C@H](CCCCNC(=O)CCC(C(=O)O)N1CCN(CC(=O)O)CCN(CC(=O)O)CC1)NC(=O)[C@H](Cc1ccccc1)NC(=O)[C@@H](N)CC(=O)O (stereo partly drawn) [CL2-F2] | 0.01 %ID/g | 0.01 %ID/g | 0.01 %ID/g | 0.14 %ID/g | 2.11 %ID/g | 0.11 %ID/g | 0.03 %ID/g | 0.02 %ID/g | 0.04 %ID/g | 0.03 %ID/g | < 4 %ID/g |  |  | tissue uptake at 4 h [1, 21]: 0.01 %ID/g
6 | NC(=O)[C@H](CCCCNC(=O)CCC(C(=O)O)N1CCN(CC(=O)O)CCN(CC(=O)O)CC1)NC(=O)[C@H](CO)NC(=O)[C@@H]1CCCN1C(=O)[C@@H]1CCCN1C(=O)[C@@H]1CCCN1C(=O)[C@H](CCC(=O)O)NC(=O)[C@@H](N)CC(=O)O (stereo partly drawn) [CL3-F1] (H-DEPPPSK(NODAGA)-NH2) |  |  |  |  |  |  |  |  |  |  |  |  |  | Biodistribution of fragment, Heart (CD1 nu/nu mice): 0.00 %iA/g; Biodistribution of fragment, Muscle (CD1 nu/nu mice): -0.01 %iA/g; Biodistribution of fragment, Pancreas (CD1 nu/nu mice): 0.00 %iA/g; tissue uptake at 4 h [1, 13]: 0.01 %ID/g; tissue uptake at 4 h [1, 14]: 0.04 %ID/g; tissue uptake at 4 h [1, 15]: 1.71 %ID/g; tissue uptake at 4 h [1, 16]: < 4 %ID/g; tissue uptake at 4 h [1, 17]: 0.04 %ID/g; tissue uptake at 4 h [1, 18]: 0.02 %ID/g; tissue uptake at 4 h [1, 19]: 0.01 %ID/g; tissue uptake at 4 h [1, 20]: 0.01 %ID/g
7 | NC(=O)[C@H](CCCCNC(=O)CCC(C(=O)O)N1CCN(CC(=O)O)CCN(CC(=O)O)CC1)NC(=O)[C@H](CO)NC(=O)[C@@H]1CCCN1C(=O)[C@@H]1CCCN1C(=O)[C@@H]1CCCN1C(=O)[C@@H](N)CCC(=O)O (stereo partly drawn) [CL3-F2] (H-EPPPSK(NODAGA)-NH2) | 0.02 %ID/g | 0.21 %ID/g | 0.01 %ID/g | 0.1 %ID/g | 2.22 %ID/g | 0.07 %ID/g | 0.04 %ID/g | 0.01 %ID/g | 0.03 %ID/g | 0.02 %ID/g | < 4 %ID/g |  |  | tissue uptake at 4 h [1, 21]: 0.02 %ID/g

The next lines start with results.

Row | tissue uptake at 4 h [1, 2] | tissue uptake at 4 h [1, 3] | tissue uptake at 4 h [1, 4] | tissue uptake at 4 h [1, 5] | tissue uptake at 4 h [1, 6] | tissue uptake at 4 h [1, 7] | tissue uptake at 4 h [1, 8] | tissue uptake at 4 h [1, 9] | tissue uptake at 4 h [1, 10] | tissue uptake at 4 h [1, 11] | tissue uptake at 4 h [1, 12] | cleaved bond (meprin β) | fragment found (meprin α) | Compound | also measured
8 |  |  |  |  |  |  |  |  |  |  |  | E-D and D-E | IEW –K(natIn-NODAGA) | HGEGTFTSDLSKQNleEEEAVRLFIEWLKNGGPSEDEPPPSK(NODAGA)-NH2 | cleaved bond (meprin α): D-E
9 |  |  |  |  |  |  |  |  |  |  |  | G-D and M-D | IEWL-DFK(natIn-NODAGA)-NH2 | HGEGTFTSDLSKQNleEEEAVRLFIEWLKNGGPSSGDYMGWMDFK(NODAGA)-NH2 | cleaved bond (meprin α): M-D and G-G
10 |  |  |  |  |  |  |  |  |  |  |  | Nle-E and E-E and V-K(^natIn-NODAGA) | IEW-AVK(natIn-NODAGA)-NH2 | HGEGTFTSDLSKQNleEEEAVRLFIEWLKNGGPSSGQNleEEEAVK(NODAGA)-NH2 | 
